Tests used:
Assay type in all cases: in vivo
Avena fatua = assay: Example 2 post-emergence greenhouse trial, AVEFA
Method: In the examples below, using the method of S. R. Colby (1967) “Calculating synergistic and antagonistic responses of herbicide combinations”, Weeds 15, p. 22ff., the value E, which is expected if the activity of the individual active compounds is only additive, was calculated: [formula] • where • X=percent activity using active herbicide A at an application rate a; • Y=percent activity using active herbicide B (e.g. mesotrione) at an application rate b; • E=expected activity (in %) by A+B at application rates a+b. If the value found experimentally is higher than the value E calculated according to Colby, a synergistic effect is present. The culture containers used were plastic pots containing loamy sand with approximately 3.0% of humus as substrate. The seeds of the test plants were sown separately for each species. For the post-emergence treatment, the test plants were grown to a plant height of from 3 to 15 cm, depending on the plant habit, and only then treated with the active compounds which had been suspended or emulsified in water. To this end, the test plants were either sown directly, and grown in the same containers, or they were first grown separately as seedlings and transplanted into the test containers a few days prior to treatment. Depending on the species, the plants were kept at 10-25° C. and 20-35° C., respectively. The test period extended over 2 to 4 weeks. During this time, the plants were tended and their response to the individual treatments was evaluated. Evaluation was carried out using a scale from 0 to 100. 100 means no emergence of the plants, or complete destruction of at least the above-ground parts, and 0 means no damage or normal course of growth. A good herbicidal activity is given at values of at least 70, and very good herbicidal activity is given at values of at least 85. Post-Emergence Application of Herbicide A-1 (A-1) and Mesotrione (B) in Greenhouse Trials Herbicide A-1 (342 g/l) and mesotrione (480 g/l) were, together with addition of 0.5 v/v % MSO (methylated sed oil) as adjuvant, formulated in water as distribution medium (water volume 200 l/ha) and sprayed with commercial flat fan nozzles.

Kochia scoparia = assay: Example 1 post-emergence greenhouse trial, KCHSC; conditions: growth stage 19, 21 DAT
Method: (§1) In the examples below, using the method of S. R. Colby (1967) “Calculating synergistic and antagonistic responses of herbicide combinations”, Weeds 15, p. 22ff., the value E, which is expected if the activity of the individual active compounds is only additive, was calculated: [formula] • where • X=percent activity using active herbicide A at an application rate a; • Y=percent activity using active herbicide B (e.g. mesotrione) at an application rate b; • E=expected activity (in %) by A+B at application rates a+b. If the value found experimentally is higher than the value E calculated according to Colby, a synergistic effect is present. The culture containers used were plastic pots containing loamy sand with approximately 3.0% of humus as substrate. The seeds of the test plants were sown separately for each species. For the post-emergence treatment, the test plants were grown to a plant height of from 3 to 15 cm, depending on the plant habit, and only then treated with the active compounds which had been suspended or emulsified in water. To this end, the test plants were either sown directly, and grown in the same containers, or they were first grown separately as seedlings and transplanted into the test containers a few days prior to treatment. Depending on the species, the plants were kept at 10-25° C. and 20-35° C., respectively. The test period extended over 2 to 4 weeks. During this time, the plants were tended and their response to the individual treatments was evaluated. Evaluation was carried out using a scale from 0 to 100. 100 means no emergence of the plants, or complete destruction of at least the above-ground parts, and 0 means no damage or normal course of growth. A good herbicidal activity is given at values of at least 70, and very good herbicidal activity is given at values of at least 85. Post-Emergence Application of Herbicide A-1 (A-1) and Mesotrione (B) in Greenhouse Trials Herbicide A-1 (50 g/l) and mesotrione (480 g/l) were, together with addition of 1 v/v % MSO (methylated sed oil) as adjuvant, formulated in water as distribution medium (water volume 200 l/ha) and sprayed with commercial flat fan nozzles.

Brachiaria decumbens = assay: Example 1 post-emergence greenhouse trial, BRADC; conditions: growth stage 13, 21 DAT, g ai/ha: A-1 4, B 62.5
Method: (§2) In the examples below, using the method of S. R. Colby (1967) “Calculating synergistic and antagonistic responses of herbicide combinations”, Weeds 15, p. 22ff., the value E, which is expected if the activity of the individual active compounds is only additive, was calculated: [formula] • where • X=percent activity using active herbicide A at an application rate a; • Y=percent activity using active herbicide B (e.g. mesotrione) at an application rate b; • E=expected activity (in %) by A+B at application rates a+b. If the value found experimentally is higher than the value E calculated according to Colby, a synergistic effect is present. The culture containers used were plastic pots containing loamy sand with approximately 3.0% of humus as substrate. The seeds of the test plants were sown separately for each species. For the post-emergence treatment, the test plants were grown to a plant height of from 3 to 15 cm, depending on the plant habit, and only then treated with the active compounds which had been suspended or emulsified in water. To this end, the test plants were either sown directly, and grown in the same containers, or they were first grown separately as seedlings and transplanted into the test containers a few days prior to treatment. […] During this time, the plants were tended and their response to the individual treatments was evaluated. […]

Setaria verticillata = assay: Example 3 post-emergence field trial, SETVE; conditions: height 8-16 cm; for % herbicidal activity A-1 / % herbicidal activity B: 42 DAT; for % herbicidal activity: g ai/ha: A-1 18, B 105
Method: (§3) In the examples below, using the method of S. R. Colby (1967) “Calculating synergistic and antagonistic responses of herbicide combinations”, Weeds 15, p. 22ff., the value E, which is expected if the activity of the individual active compounds is only additive, was calculated: [formula] • where • X=percent activity using active herbicide A at an application rate a; • Y=percent activity using active herbicide B (e.g. mesotrione) at an application rate b; • E=expected activity (in %) by A+B at application rates a+b. If the value found experimentally is higher than the value E calculated according to Colby, a synergistic effect is present. Evaluation was carried out using a scale from 0 to 100. 100 means no emergence of the plants, or complete destruction of at least the above-ground parts, and 0 means no damage or normal course of growth. A good herbicidal activity is given at values of at least 70, and very good herbicidal activity is given at values of at least 85. Post-Emergence Application of Herbicide A-1 (A-1) and Mesotrione (B) in Field Trials Herbicide A-1 (342 g/l) and mesotrione (100 g/l) were, together with addition of 0.5 v/v % MSO (methylated sed oil) as adjuvant, formulated in water as distribution medium (water volume 200 l/ha) and sprayed with commercial flat fan nozzles.

Echinochloa crus-galli = assay: Example 1 post-emergence greenhouse trial, ECHCG; conditions: growth stage 14, 21 DAT
Method: as §1

Senecio vulgaris = assay: Example 3 post-emergence field trial, SENVU; conditions: height 25-30 cm, 7 DAT
Method: as §3

Panicum dichotomiflorum = assay: Example 1 post-emergence greenhouse trial, PANDI; conditions: growth stage 13, 21 DAT, g ai/ha: A-1 4, B 62.5
Method: as §2

Glycine max = assay: Example 3 post-emergence field trial, GLXMA; conditions: height 7-11 cm
Method: as §3

Erigeron canadensis = assay: Example 1 post-emergence greenhouse trial, ERICA; conditions: growth stage 18, 21 DAT
Method: as §1

[1] = growth stage 11, 7 DAT, g ai/ha: A-1 1, B 50
[2] = growth stage 11, 20 DAT, g ai/ha: A-1 1, B 50
[3] = growth stage 11, 20 DAT, g ai/ha: A-1 1, B 100
[4] = 7 DAT, g ai/ha: A-1 12.5, B 105
[5] = 21 DAT, g ai/ha: A-1 12.5, B 105

In the case of `CCOC(=O)COc1ccccc1Oc1nc(-n2c(=O)cc(C(F)(F)F)n(C)c2=O)c(F)cc1Cl` [A-1, ethyl 2-[2-[[3-chloro-5-fluoro-6-[3-methyl-2,6-dioxo-4-(trifluoromethyl)pyrimidin-1-yl]-2-pyridyl]oxy]phenoxy]acetate], the “% herbicidal activity” value (Avena fatua; [1]) was 70%, the “% herbicidal activity” value (Avena fatua; [2]) was 35% and the “% herbicidal activity” value (Avena fatua; [3]) was 35%. The “% herbicidal activity” value (Kochia scoparia; g ai/ha: A-1 0.5, B 62.5) was 65%, the “% herbicidal activity” value (Kochia scoparia; g ai/ha: A-1 1, B 62.5) was 65% and the “% herbicidal activity” value (Brachiaria decumbens) was 98%. For the same compound, the “% herbicidal activity A-1” value (Setaria verticillata; A-1 12.5 g ai/ha (row with B 105)) was 60%, the “% herbicidal activity A-1” value (Setaria verticillata; A-1 12.5 g ai/ha (row with B 210)) was 50% and the “% herbicidal activity” value (Setaria verticillata; 7 DAT) was 80%. For the same compound, the “% herbicidal activity” value (Setaria verticillata; 21 DAT) was 75%, the “% herbicidal activity” value (Echinochloa crus-galli; g ai/ha: A-1 1, B 62.5) was 90% and the “% herbicidal activity” value (Echinochloa crus-galli; g ai/ha: A-1 4, B 62.5) was 90%. For the same compound, the “% herbicidal activity” value (Senecio vulgaris; g ai/ha: A-1 12.5, B 210) was 85%, the “% herbicidal activity” value (Senecio vulgaris; g ai/ha: A-1 18, B 210) was 88% and the “% herbicidal activity” value (Panicum dichotomiflorum) was 95%. The “% herbicidal activity” value (Glycine max; [4]) was 90%, the “% herbicidal activity” value (Glycine max; 7 DAT, g ai/ha: A-1 18, B 105) was 90% and the “% herbicidal activity” value (Glycine max; [5]) was 92%. The “% herbicidal activity” value (Erigeron canadensis; g ai/ha: A-1 0.5, B 62.5) was 60% and the “% herbicidal activity” value (Erigeron canadensis; g ai/ha: A-1 1, B 62.5) was 80%.
`CS(=O)(=O)c1ccc(C(=O)C2C(=O)CCCC2=O)c([N+](=O)[O-])c1` [B, mesotrione] was tested, and the “% herbicidal activity” value (Avena fatua; [1]) was 15%, the “% herbicidal activity” value (Avena fatua; [2]) was 15% and the “% herbicidal activity” value (Avena fatua; [3]) was 15%. For the same compound, the “% herbicidal activity” value (Kochia scoparia; g ai/ha: A-1 0.5, B 62.5) was 75%, the “% herbicidal activity” value (Kochia scoparia; g ai/ha: A-1 1, B 62.5) was 75% and the “% herbicidal activity” value (Brachiaria decumbens) was 20%. For the same compound, the “% herbicidal activity B” value (Setaria verticillata; B 105 g ai/ha) was 30%, the “% herbicidal activity B” value (Setaria verticillata; B 210 g ai/ha) was 20% and the “% herbicidal activity” value (Setaria verticillata; 7 DAT) was 50%. The “% herbicidal activity” value (Setaria verticillata; 21 DAT) was 35%, the “% herbicidal activity” value (Echinochloa crus-galli; g ai/ha: A-1 1, B 62.5) was 65% and the “% herbicidal activity” value (Echinochloa crus-galli; g ai/ha: A-1 4, B 62.5) was 65%. The “% herbicidal activity” value (Senecio vulgaris; g ai/ha: A-1 12.5, B 210) was 40%, the “% herbicidal activity” value (Senecio vulgaris; g ai/ha: A-1 18, B 210) was 40% and the “% herbicidal activity” value (Panicum dichotomiflorum) was 0%. For the same compound, the “% herbicidal activity” value (Glycine max; [4]) was 55%, the “% herbicidal activity” value (Glycine max; 7 DAT, g ai/ha: A-1 18, B 105) was 55% and the “% herbicidal activity” value (Glycine max; [5]) was 45%. The “% herbicidal activity” value (Erigeron canadensis; g ai/ha: A-1 0.5, B 62.5) was 65% and the “% herbicidal activity” value (Erigeron canadensis; g ai/ha: A-1 1, B 62.5) was 65%.
